Values joined by “and” are separate entries in the source; they are usually repeats but may differ in a detail not shown here. Equal entries are not always repeated.
What was measured:
[1] = target: T1, human α2β2γ1 complex, CBS1 mutant (L129D/V130D) (Homo sapiens, UniProt P54619+P54646, L129D/V130D); assay: AMPK activation and Thr172 phosphorylation by the LKB1 complex, CBS1 mutant; assay type: biochemical; conditions: 300 µM nucleotide, 200 µM ATP
T1 construct: made in house; host or cells: Escherichia coli
T1 sequence (P54619 whole entry L129D/V130D): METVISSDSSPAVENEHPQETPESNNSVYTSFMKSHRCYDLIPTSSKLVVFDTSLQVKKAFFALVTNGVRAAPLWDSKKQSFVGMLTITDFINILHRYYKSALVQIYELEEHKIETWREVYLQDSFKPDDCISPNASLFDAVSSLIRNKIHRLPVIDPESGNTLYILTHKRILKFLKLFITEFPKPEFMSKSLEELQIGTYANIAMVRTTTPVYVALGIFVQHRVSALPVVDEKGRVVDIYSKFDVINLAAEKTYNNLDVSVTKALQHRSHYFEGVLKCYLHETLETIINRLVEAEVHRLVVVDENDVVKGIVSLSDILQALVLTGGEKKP
T1 sequence (P54646 whole entry): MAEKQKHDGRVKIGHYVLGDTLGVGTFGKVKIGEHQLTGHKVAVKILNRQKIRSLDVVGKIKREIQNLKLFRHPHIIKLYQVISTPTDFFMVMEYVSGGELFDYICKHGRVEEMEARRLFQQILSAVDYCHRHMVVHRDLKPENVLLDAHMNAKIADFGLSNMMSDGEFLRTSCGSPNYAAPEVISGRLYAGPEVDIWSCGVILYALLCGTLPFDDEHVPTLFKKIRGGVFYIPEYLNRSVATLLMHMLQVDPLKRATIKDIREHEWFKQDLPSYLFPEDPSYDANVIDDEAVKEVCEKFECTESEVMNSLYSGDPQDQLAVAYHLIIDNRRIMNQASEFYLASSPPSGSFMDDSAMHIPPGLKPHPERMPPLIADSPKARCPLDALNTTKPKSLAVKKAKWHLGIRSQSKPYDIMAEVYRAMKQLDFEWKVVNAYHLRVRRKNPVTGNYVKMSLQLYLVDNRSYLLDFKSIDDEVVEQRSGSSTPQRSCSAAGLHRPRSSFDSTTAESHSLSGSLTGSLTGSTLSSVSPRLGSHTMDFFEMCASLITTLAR
T1 sequence (O43741 whole entry partner): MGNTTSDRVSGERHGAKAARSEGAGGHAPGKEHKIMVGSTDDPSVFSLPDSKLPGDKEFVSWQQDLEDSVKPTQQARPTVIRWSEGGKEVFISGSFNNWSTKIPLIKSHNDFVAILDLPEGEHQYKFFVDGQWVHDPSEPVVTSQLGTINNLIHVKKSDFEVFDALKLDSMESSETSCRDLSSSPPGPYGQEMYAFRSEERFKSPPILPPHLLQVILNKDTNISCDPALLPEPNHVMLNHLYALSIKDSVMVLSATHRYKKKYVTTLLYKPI
Protocol: The relative roles of the three CBS sites in the other two mechanisms of activation of AMPK by AMP or ADP, i.e. promotion of Thr172 phosphorylation by LKB1, and protection against Thr172 dephosphorylation by protein phosphatases, have not been examined previously. As expected, incubation of the α2β2γ1 AMPK complex with a fixed, limiting amount of purified LKB1:STRADα:MO25α complex in the presence of 200 µM Mg.ATP^2− caused a large degree of activation (Figure 5A) and phosphorylation (Figure 5B) of AMPK (unphosphorylated α2β2γ1 complex), which were stimulated more than 2-fold by 300 µM AMP and 1.6-fold by 300 µM ADP.
Figure 5. Effects of AMP or ADP on AMPK activation and Thr172 phosphorylation by the LKB1:STRADα:MO25α complex. Unphosphorylated human α2β2γ1 complexes (WT, or with L129D/V130D, V276G/L277G or I312G mutations affecting CBS1, CBS3 or CBS4 respectively) were incubated with ATP and a fixed concentration of the LKB1:STRADα:MO25α complex in the presence or absence of AMP or ADP (both 300 µM), as described in the Materials and methods section. After the incubation aliquots were withdrawn for (A) AMPK assay or (B) Western blots. […] For (B), due to a limit on the number of lanes that could be run on one gel, single replicates from the triplicate assays were analysed. […]

[2] = target: T2, human α2β2γ1 complex, CBS3 mutant (V276G/L277G) (Homo sapiens, UniProt P54619+P54646, L277G/V276G); assay: Allosteric activation of CBS3 mutant human α2β2γ1 AMPK complex; assay type: biochemical
T2 construct: made in house; host or cells: Escherichia coli
T2 sequence (P54619 whole entry V276G/L277G): as the sequence (P54619 whole entry L129D/V130D) above, with D129L, D130V, V276G, L277G counted along it
T2 sequence (P54646 whole entry): as the sequence (P54646 whole entry) above
T2 sequence (O43741 whole entry partner): as the sequence (O43741 whole entry partner) above
Source text: To study allosteric activation with a more well-defined AMPK complex, and to study the effects of mutations in individual adenine nucleotide-binding sites on the γ subunit, we expressed a human α2β2γ1 complex in Escherichia coli and purified it utilizing the polyhistidine tag at the N-terminus of the α2 subunit. […] However, it had not been co-expressed with an N-myristoyl transferase so would not have been N-myristoylated on the β2 subunit. The complex was expressed not only with the WT γ1 sequence but also with mutations affecting hydrophobic residues previously shown to be involved in binding of the adenine moieties of nucleotides at CBS1 (L129D/V130D), CBS3 (V276G/L277G) and CBS4 (I312G). All four complexes co-purified as heterotrimeric 1:1:1 complexes as expected, and were phosphorylated and activated equally well either by CaMKK2 or the LKB1: STRADα:MO25α complex (Supplementary Figure S2). For the studies described below we phosphorylated Thr172 using a GST-tagged CaMKK2 and repurified AMPK using size exclusion chromatography and a glutathione-Sepharose column, which remove CaMKK2.
Figure 4. Allosteric activation of WT and mutant human α2β2γ1 AMPK complex by AMP and ADP at three different concentrations of ATP. The α2β2γ1 complex was phosphorylated on Thr172 prior to assay using CaMKK2. The γ1 subunit was either (A/E): WT; (B/F): a CBS1 mutant (L129D/V130D); (C/G): a CBS3 mutant (V276G/L277G); (D/H): a CBS4 mutant (I312G). Results are means of duplicate assays ± SD; error bars are not shown if they were smaller than the symbols used for mean values. Assays and curve fitting were as in Figure 1 at either 0.2 mM (left panels) or 5 mM (right panels) ATP. Best-fit values for all parameters used to generate the curves are listed in Supplementary Table S1.
Sources of antibodies were as described: pThr172 (AMPK-α: Cell Signaling Technologies, Danvers, MA, U.S.A., Cat# 2535), AMPK-α2 [22]. Rat liver AMPK was purified as described previously. Plasmid encoding human (His)6-tagged AMPK (α2β2γ1, bacterially expressed) generated as in [23], was a gift from AstraZeneca, Cambridge, U.K. The L129D/V130D (CBS1), V276G/L277G (CBS3) and I312G (CBS4) mutations in the α2β2γ1 complex were generated using the Quikchange II site-directed mutagenesis kit (Agilent Technologies) and confirmed by DNA sequencing. Human GST-tagged α2 kinase domain (1–310), LKB1:STRAD-α:MO25-α complexes, GST-tagged CaMKK2 [26], and PPM1A (PP2Cα) were produced as described. Bacterially expressed heterotrimers were activated by phosphorylation of Thr172 by GST-tagged CaMKK2 in the presence of ATP, and CaMKK2 was subsequently removed by passage through glutathione-Sepharose. Human GST-tagged α2 kinase domain was activated in a similar manner except that human (His)6-tagged LKB1:STRAD-α:MO25-α complex was used and removed after activation via passage through a His-Trap column. Recombinant human 5′-nucleotidase, CD73, Cat # 5795-EN-01, was from R&D systems (Minneapolis, MN, U.S.A.).
AMPK assays measured the transfer of radioactivity from [γ-^33P]ATP to a peptide substrate, which was separated from unreacted ATP by binding to P81 paper. This assay was described previously except that we used [γ-^33P] rather than [γ-^32P]ATP. In some assays (specified in Figure legends) the concentration of ATP was increased from 0.2 to 1 or 5 mM ATP, with MgCl2 concentrations maintained at a constant 4.8 mM excess above the concentration of ATP [19]. Where allosteric activation by AMP or ADP was being studied, we used the SAMS peptide as substrate. For all other assays the AMARA peptide was used.

SMILES | effect of nucleotide on activation/phosphorylation by LKB1 in the mutant [1] | increase of EC50 relative to WT ([2]; α2β2γ1 CBS3 mutant vs WT, 5 mM ATP) | Activation (maximal) ([2]; α2β2γ1 CBS3 mutant, 0.2 mM ATP) | EC50 ([2]; α2β2γ1 CBS3 mutant, 0.2 mM ATP) [mM] | IC50 ([2]; α2β2γ1 CBS3 mutant, 0.2 mM ATP) [mM] | IC50/EC50 ([2]; α2β2γ1 CBS3 mutant, 0.2 mM ATP) | activation over basal remaining ([2]; α2β2γ1 CBS3 mutant, 0.2 mM ATP) [%] | Activation (maximal) ([2]; α2β2γ1 CBS3 mutant, 5.0 mM ATP) | EC50 ([2]; α2β2γ1 CBS3 mutant, 5.0 mM ATP) [mM] | IC50 ([2]; α2β2γ1 CBS3 mutant, 5.0 mM ATP) [mM] | IC50/EC50 ([2]; α2β2γ1 CBS3 mutant, 5.0 mM ATP)
Nc1ncnc2c1ncn2[C@@H]1O[C@H](COP(=O)(O)O)[C@@H](O)[C@H]1O [AMP] | unaffected | 10- to 20 fold | 1.2 (1.1-1.2) fold | 0.0029 | 6.1 | 2100 | 20 | 2.0- to 2.5 fold and 2.3 (2.1-2.7) fold | 0.37 | 40 | 110
Nc1ncnc2c1ncn2[C@@H]1O[C@H](COP(=O)(O)OP(=O)(O)O)[C@@H](O)[C@H]1O [ADP] | unaffected |  | did not cause allosteric activation and none |  | 0.5 |  |  | essentially abolished allosteric activation |  | 7.6 | 
